In a melting point compilation (Tetko et al.; mined from patent text by program, amines drawn as free bases though some values may be those of a salt):

Row | Compound | melting point [°C]
1 | Nc1cc(F)ccc1NC(c1ccccc1)c1ccccc1 | 120
2 | COc1ccccc1-c1cc2cnc(N)nc2nc1NC(=O)NC(C)(C)C | 300 to 301
3 | O=C(CCCCCl)c1ccc2c(c1)Cc1cc(C(=O)CCCCCl)ccc1S2 | 85 to 86.5
4 | COC(=O)C(Cc1c[nH]c2ccccc12)NC(=O)c1ccc2c(c1)OCO2 (stereo unspecified) | 123 to 124
5 | C=CCc1c(O)ccc2ncccc12 | 162 to 164
6 | CCC1(CC)C(=O)N(CC(O)Cc2cc(C(C)C)c(O)c(C(C)C)c2)C(=O)N(CC(O)Cc2cc(C(C)C)c(O)c(C(C)C)c2)C1=O (stereo unspecified) | 126 to 127
7 | CCOc1ccc(Br)c(F)c1Cl | 65.4 to 66.1
8 | CCOCCNC(=O)C(c1ccccc1)c1ccccc1 | 83.5 to 86.2
9 | COC(=O)c1scc(-c2ccccc2OC)c1-n1cccc1 | 148
10 | CC(C)CCC1(CCC(C)C)c2cc(Cl)ccc2-c2ccc(Cl)cc21 | 116 to 118
11 | O=C(O)CC(NC(=O)OCC1c2ccccc2-c2ccccc21)C(F)(F)F (stereo unspecified) | 187 to 189
12 | S=C(Cc1ccncc1)N1CCOCC1 | 162 to 163
13 | O=C(O)Cc1cc(C(=O)c2cccc(Cl)c2)ccc1O | 186
14 | CN(C)N=C1CCC2C3CCc4cc(O[Si](C)(C)C(C)(C)C)ccc4C3CCC12C (stereo unspecified) | 100 to 103
15 | FC(F)(F)c1ccc(-c2nccc(CBr)n2)cc1 | 125
16 | COc1cc(C=CC(=O)c2cccc(N(C)C)c2)cc(OC)c1 | 81.8 to 82.6
17 | Cc1cccc(C(=O)Nc2nc(=O)c3ccccc3n2C)c1 | 266 to 269
18 | CCC(C)C(CO)NC(=O)CC(O)C(CC(C)C)NC(=O)C(Cc1cscn1)NC(=O)C(Cc1cccc2ccccc12)NC(=O)OCc1ccccc1 (mixture of isomers) | 167 to 169
19 | CCCc1nn(-c2ccc(C(F)(F)F)cn2)cc1CCCOc1ccc(CCC(=O)O)c(C)c1 | 124 to 126
20 | CC(C)Oc1nc2cc(-n3ccc(=O)cc3)c([N+](=O)[O-])cc2nc1OC(C)C | 217 to 219
21 | COc1ccc(-c2ccc(CCNC(=O)c3cc(Cl)ccc3OC)cc2S(N)(=O)=O)cc1 | 205 to 208
22 | CN(C(=O)c1cc(=O)n(C)c2ccc(C(=O)c3ccc(Cl)cc3)cc12)c1cccc(Cl)c1 | 184
23 | COc1ccc(-c2cnc(C#N)nc2)cc1OC1CCCC1 | 121 to 123
24 | O=C(CCCCCCCBr)OC(C(=O)c1ccccc1)c1ccccc1 (stereo unspecified) | 60 to 61
25 | N#Cc1ccccc1OCCc1c[nH]cn1 | 170 to 171
26 | CCN(CC)CCOc1ccc2cc3ccc(OCCN(CC)CC)c(Br)c3nc2c1Br | 66 to 68

Row | Compound | melting point [°C]
27 | N=C(Nc1ccccc1-c1cccc(F)c1)N1CCC(O)CC1 | 147 to 148
28 | COc1ccc(C2Sc3cc(Cl)ccc3NC(=O)C2O)cc1 (stereo unspecified) | 237 to 241
29 | COCOc1ccc(C=O)c(OCc2ccc(Cl)cc2Cl)c1C | 128
30 | NCC(=O)N[C@@H]1CN2C(=O)N(c3cc(Cl)nc(Cl)c3)C(=O)[C@@]2(Cc2ccc(OC(F)(F)F)cc2)C1 | 114
31 | CC(=O)OC1CSC(Oc2cccc(-c3cccnc3)c2)C(OC(C)=O)C1OC(C)=O (stereo unspecified) | 123 to 126
32 | COC(=O)CCC(NC(=O)Cc1cc(C)c(C(=O)c2ccc(Cl)cc2)n1C)C(=O)OC (stereo unspecified) | 129 to 130
33 | CC(C)(C)c1cc(C=Cc2cc(C=Cc3cc(C(C)(C)C)cc(C(C)(C)C)c3)cc(CO)c2)cc(C(C)(C)C)c1 | 226 to 228
34 | CCCCCCCCCC(=O)Nc1cc(N)cc(NC(=O)CCCCCCCCC)c1 | 152 to 154
35 | Oc1ccc(-c2noc3ccc(O)cc23)cc1 | 266 to 268
36 | COc1ccc(OC)c2c1CCOC2CCl (stereo unspecified) | 101 to 102
37 | COc1cc(Oc2c(Cl)cccc2C(F)(F)F)nc(C(=O)O)c1 | 110 to 112
38 | COc1ccc2c3c1OC1CC(O)C=CC31CCN(C(=O)Nc1ccccc1)C2 (stereo unspecified) | 198 to 199
39 | CC(c1ccccc1)N(C=O)CC#N (single isomer, unassigned; (+)) | 78.9
40 | CC(C)(C)OC(=O)NC1Cc2ccc(NC(=O)c3ccccc3-c3ccc(C(F)(F)F)cc3)cc2C1 (stereo unspecified) | 198 to 201
41 | Clc1ccc(NC2=NCCN2)c(Cl)c1 | 138 to 139
42 | COc1ccc(CSC(=S)N2Cc3[nH]c4ccccc4c3CC2C(=O)O)cc1 (stereo unspecified) | 195 to 196
43 | Oc1ccc(F)c(O)c1F | 100 to 101
44 | COC(=O)c1ccccc1CS(N)(=O)=O | 79 to 81
45 | CN1CNC(=N[N+](=O)[O-])N(Cc2ccc(Cl)nc2)C1 | 150 to 154
46 | CC(=O)NS(=O)(=O)c1cc(C(=O)CCl)ccc1Cl | 177
47 | O=C(NOCC(O)CN1CCCCC1)Nc1ccccc1 (stereo unspecified) | 101 to 103
48 | CCc1ccccc1-c1nc(-c2cccc(OC)c2)n[nH]1 | 72 to 75
49 | COC(=O)C=C(c1ccc(C#N)cc1)n1ccnc1 | 144 to 147
50 | O=C(Nc1cccc(C(F)(F)F)c1)C(F)(F)F | 69
51 | CCOC(=O)c1sc(SC)c2c1CCC(NC(C)=O)C2=O (stereo unspecified) | 215 to 216
52 | CCCCCC1=CCC(c2cc(F)cc(F)c2)C=C1 (stereo unspecified) | 31

Row | Compound | melting point [°C]
53 | COc1ccc(C(=O)c2ccc(OCCBr)cc2)cc1 | 112 to 113
54 | CS(=O)(=O)NCCn1c2ccccc2c(=O)c2ccccc21 | 226 to 227
55 | NS(=O)(=O)OCCOc1ccccc1Cl | 84.5 to 86
56 | Cc1cccc2nc(NC(=O)c3ccc(C(C)(C)CCC(=O)O)cc3)cn12 | 260
57 | CCOc1cc(C(CC#N)N2C(=O)c3ccc4ccccc4c3C2=O)ccc1OC (stereo unspecified) | 163 to 165
58 | CC(=O)C1=C(C)NC(C)=C(c2nc(CN(C)Cc3ccccc3)no2)C1c1cccc([N+](=O)[O-])c1 (stereo unspecified) | 138 to 139
59 | CN1C[C@@H]2C[C@@]1(C(=O)c1ccc(-c3[nH]nc4c3C(=O)c3c(NC(=O)NN5CCOCC5)cccc3-4)s1)CN2 | 224 to 225
60 | Cn1nc(-c2ccc(C(F)(F)F)cc2)cc1C(=O)O | 230 to 232
61 | CNCCOc1cccc2c1CC(=O)N2 | 153 to 156
62 | CNC1([C@@H]2CCN(c3ccc4c(=O)c(C(=O)O)cn(C5CC5)c4c3C)C2)CC1 | 190 to 192
63 | CN(Cc1sc2c(=O)c(C(=O)NCc3ccc(Cl)cc3)cn(C)c2c1CO)CC(O)c1ccc(C#N)s1 (stereo unspecified) | 188 to 190
64 | Cc1ccc(CNCC2(F)CCN(C(=O)c3ccc(F)c(F)c3)CC2)nc1 | 158
65 | COC(=O)c1ccc(NC(=O)c2cc(C(C)C)c(C(C)C)s2)cc1F | 146 to 147
66 | CCOC(=O)c1c(O)c2ccc(C)nc2[nH]c1=O | 190 to 193
67 | NCCOc1cccc2[nH]ccc12 | 123 to 125
68 | O=C1CN=C(c2ccccc2)c2cc(NO)ccc2N1 | 186 to 187
69 | N#Cc1ccc(CNC(=O)c2ccc(C=O)cc2)cc1 | 170
70 | O=C(c1ccco1)N1CCN(c2cc(-c3ccc(F)cc3)c3c(n2)CCC3)CC1 | 165 to 166
71 | COC(=O)CCCc1ccc(C(=O)C=Cc2ccccc2)cc1 | 43 to 44
72 | COc1ccc(C2Sc3cc(Oc4cccc(C)c4)ccc3NC(=O)C2O)cc1 (stereo unspecified) | 201 to 202
73 | Nc1cccc(C(=O)c2ccc(Oc3ccccc3)c(N)c2)c1 | 112 to 113
74 | CC(C)(C)OC(=O)[C@H](Cc1ccc(O)cc1)NC(=O)c1c(F)cccc1F | 145 to 148
75 | CCN(CC)C(=O)c1c(O)cc(C(F)(F)F)cc1-c1ccc(OC)c(OC)c1 | 161
76 | CCCCCCCCCCCCc1cc(C=O)on1 | 53 to 54
77 | Fc1ccc(F)c(CN2CCNc3ncc(-c4ccc(N5CCOCC5)nc4)cc32)c1 | 206 to 207
78 | CC(C)(C(=O)Nc1ccc(Cl)cc1)/C(F)=C/Br | 131 to 133

Row | Compound | melting point [°C]
79 | CCCCCC(CC(=O)Nc1cc(C(N)=O)ccc1C(C)(C)C)c1cccc(OC)c1O (stereo unspecified) | 118 to 121
80 | Cc1c(Cl)c(C(F)(F)F)nn1-c1cc(OS(C)(=O)=O)c(Cl)cc1F | 72 to 74.5
81 | CC(C)(C)C(=O)COC(=O)C1(C(=O)OCc2ccccc2)CCCN(C(=O)OCC(Cl)(Cl)Cl)C1 (stereo unspecified) | 114
82 | CC1(C)C(C=CC(=O)O)C1C(=O)OC(C#N)c1ccc(F)c(Oc2ccccc2)c1 (stereo unspecified) | 99
83 | O=C(COC1CCCCO1)c1ccc(Cl)cc1 (stereo unspecified) | 57
84 | O=C(NCc1ccccn1)c1cc2ccnc(Cl)c2[nH]1 | 177 to 183
85 | COc1cc(COc2nn(-c3ccccc3)cc2/C=C/c2ccccn2)ccc1OCc1nc(-c2ccco2)oc1C | 135 to 136
86 | O=C1c2ccccc2S(=O)(=O)N1CCCCBr | 72
87 | Nc1nc2ccccc2c2c1nc(CCO)n2CCCNC(=O)c1cc2ccccc2cn1 | 245 to 246
88 | COC(=O)CC(=O)c1ncccc1Cl | 113 to 116
89 | CCOC(=O)c1c[nH]c(=S)n1C1CCc2cc(F)cc(F)c2C1 (stereo unspecified) | 187 to 189
90 | O=C(O)c1cc(-c2ccccc2)c2ccccc2n1 | 170 to 171
91 | CCCCc1ncc(C=C2C(=O)N(CC(=O)OCC)c3ccccc32)n1Cc1ccc(C(=O)OC)cc1 | 118 to 119
92 | O=C(Cn1cc(Cl)cn1)c1ccc(Br)s1 | 127
93 | CC1(C)NC(=O)N(c2ccc(Cl)c(C(F)(F)F)c2)C1=N | 148 to 149
94 | NC(=O)COC(=O)c1c(Cl)ccc(Cl)c1Cl | 158 to 160
95 | Cc1ccc(NC(=O)c2ccc(N)c([N+](=O)[O-])c2)cc1C | 192 to 195
96 | OC(CNCc1ccccc1)c1cc(C(F)(F)F)nc2c(C(F)(F)F)cccc12 (stereo unspecified) | 138 to 139
97 | COC(=O)Nc1c(C(=O)O)ccc(Cl)c1Cl | 155 to 156
98 | c1ccc(CCC2CCN(Cc3n[nH]c4ccccc34)CC2)cc1 | 153 to 155
99 | CCCn1c(CCO)nc2c(N)nc3cc(OCCCNC(=O)c4cccnc4)ccc3c21 | 184
100 | COc1cc(C2CCN(CCO)CC2O)ccc1Nc1ncc2ccc(-c3ccccc3OC)n2n1 (stereo unspecified) | 88 to 96
101 | Cc1nc(-n2cccc(C(=O)Nc3ccccc3)c2=O)sc1C(=O)NCc1ccccc1 | 225 to 227
